Test results reported in patent US20250213561A1, “SELECTIVE HYPOTHALAMUS PERMEABLE HDAC6 INHIBITORS FOR TREATMENT OF LEPTIN-RESISTANT OBESITY” (The Children’s Medical Center Corporation, priority 2022, published 2025).

Columns and labels:
Assay type in all cases: in vivo
DIO mice [1] = test: Single dose food intake in 24 h fasted DIO mice; settings: ACY775 10 mg/kg, ACY738 50 mg/kg i.p.
Method: (§1) Food intake was analyzed hourly until 3:00 am. […] DEXA scans were performed in two different cohorts.

DIO mice [2] = test: Chronic treatment of DIO mice (body weight, food intake, DEXA, glucose homeostasis); settings: for hepatic steatosis (H&E liver): 3 weeks; for food intake: 3 weeks treatment; for glucose tolerance test (GTT): after 1 week; for HOMA-IR insulin resistance / serum insulin levels / serum leptin levels: after 3 weeks; for food intake and total body fat mass (summary): high fat diet induced mice
Method: DIO mice were treated with ACY775 (10 mg/kg/day, i.p.) for 3 weeks. Daily body weight (g) of DIO mice treated with vehicle (n=17) or ACY775 (n=17) during 3 weeks of treatment was determined. Daily food intake (g) during 3 weeks of vehicle or ACY775 treatment was assessed. 24 hours' food intake per mouse during the first week of vehicle or ACY775 treatment was determined. Serum leptin (ng/ml) levels after 3 weeks of vehicle (n=24) or ACY775 (n=24) treatment was assessed. Lean mass (g), fat mass (g) and fat percentage (%) after 3 weeks of vehicle (n=17) or ACY775 (n=17) treatment measured by Dual-energy X-ray absorptiometry (DEXA) scan. DEXA scans were performed in two different cohorts. Glucose tolerance test (GTT) after 1 week of vehicle (n=33) or ACY775 (n=26) treated DIO mice was assessed. Area of curve (AOC) analysis for GTT was performed. Blood glucose (mg/dl) levels after 1 week of vehicle (n=17) or ACY775 (n=16) were assessed in treated DIO mice. Insulin tolerance test (ITT) was performed after 2 weeks of vehicle (n=31) or ACY775 (n=21) treatment of DIO mice. Serum insulin (ng/ml) levels were measured after 3 weeks of vehicle (n=22) or ACY775 (n=21) in treated DIO mice. A homeostatic model assessment of insulin resistance (HOMA-IR) was analyzed after 3 weeks of vehicle (n=14) or ACY775 (n=13) treated DIO mice.
as §1
DIO mice then were treated with ricolinostat (50 mg/kg, i.p.) for 3 weeks. Daily body weight (g), daily food intake (g), serum leptin (ng/ml) levels after 3 weeks of vehicle (n-8) or ricolinostat (n=8) treatment, lean mass (g); fat mass and fat percentage (%) after 3 weeks of vehicle (n=16) or ricolinostat (n=17) treatment measured by DEXA scan were determined.
Blood glucose (mg/dl) levels were measured after 1 week of vehicle (n=16) or ricolinostat (n=16) treated DIO mice. GTT after 1 week of vehicle (n=17) or ricolinostat (n=16) treatment of DIO mice was assessed. AOC analysis for GTT was performed. ITT after 2 weeks of vehicle (n=17) or ricolinostat (n=16) treated DIO mice was measured. Serum insulin (ng/ml) levels after 3 weeks of vehicle (n=8) or ricolinostat (n=8) treatment were measured in DIO mice. Liver sections from 3 weeks of vehicle or ricolinostat treated DIO mice were stained by H&E.
DIO mice then were treated with bavarostat (10 mg/kg, i.p.) for 3 weeks and daily body weight (g) of DIO mice treated with Veh (n=9) or bavarostat (n=9) measured during the three weeks of treatment period. Daily food intake (g) during 3 weeks of Veh or bavarostat treatment was also measured.
ACY1083 was administered to DIO mice as described in Example 3.

DIO mice [3] = test: CLAMS metabolic cages in DIO mice; settings: for energy expenditure: 3 days, ACY775 10 mg/kg, ACY738 50 mg/kg i.p.
Method: Diet induced obese (DIO) mice were placed into metabolic cages and received ACY775 (10 mg/kg, i.p., n=7) or vehicle (n=8) once a day for 3 days. Energy expenditure, respiratory exchange ratios (RER; VCO2/VO2), ambulatory count (physical activity) from each group of mice were determined. Bar graphs represent average of two dark (8-20 and 32-44 hr) and two light cycles ([…]).
Comprehensive Lab Animal Monitoring System (CLAMS) was used to measure metabolic parameters such as energy expenditure (EE) and respiratory exchange ratio (RER) and physical activity levels in Vehicle- and ACY775-treated mice.

DIO mice [4] = test: Conditioned place preference (CPP) assay in DIO mice; settings: for time and frequency in the food zone / time and frequency in the food-containing white side chambers: fed and fasting conditions; for cumulative duration in the dark side chambers: fed or fasting conditions
Method: DIO mice were treated with vehicle or ACY775 (10 mg/kg, i.p., once a day) for 3 days. On the fourth day, 1 h after the beginning of the light cycle, the mice were administered vehicle or ACY775 (10 mg/kg, i.p.) and the conditioned place preference (CPP) assay under the ad libitum feeding condition was utilized. The CPP assay was performed 6 h later under the ad libitum feeding condition (n=10 mice for both the Vehicle- and ACY775-treated groups). CPP assay under a 20-h fasting condition was also performed. DIO mice were treated with vehicle or ACY775 (10 mg/kg, i.p.) once a day and fasted for 15 h after the third injection. On the fourth day, 1 h after the beginning of the light cycle, the mice were administered vehicle or ACY775 (10 mg/kg body weight, i.p.) and the CPP assay was performed 5 h after this injection under the fasting condition (n=10 mice for both the Vehicle- and ACY775-treated groups).
Measurements were made of the total distance that the mice traveled during the CPP test, the average velocity of movement during the assay, the total time the mice spent in the dark chamber during the test; the frequency with which the mice traveled to the dark chamber during the test; the total time the mice spent in the food-paired white chamber; the frequency with which the mice traveled to the food paired white chamber; the total time the mice spent in the food-containing zone within the food-paired side chamber; and the frequency with which the mice traveled to the food-containing zone within the food-paired side chamber during the test.

db/db mice = test: Chronic treatment of db/db mice; settings: for ITT blood glucose: 2 weeks; for fasting blood glucose: after the first week
Method: Daily food intake (g), Serum leptin (ng/ml), lean mass (g), fat mass (g) and fat percentage (%) were measured after 3 weeks of treatment measured by DEXA scan. GTT was determined after 1 week of treatment. AOC analysis for GTT was performed and Blood glucose (mg/dl) levels were measured after 1 week of treatment. Blood glucose (mg/dl) levels and Serum insulin (ng/ml) levels were measured after 3 weeks of treatment. ITT was assessed after 2 weeks of treatment. H&E staining of the liver sections was conducted after 3 weeks of treatment.

HDAC6-KO DIO mice = test: Chronic treatment of DIO WT versus HDAC6 KO mice; settings: for blood glucose, serum insulin and leptin levels, WT versus HDAC6 KO / fat mass and fat %, WT versus HDAC6 KO / food intake, WT versus HDAC6 KO / glucose tolerance and insulin sensitivity (GTT, ITT), WT versus HDAC6 KO / lean mass, WT versus HDAC6 KO / body weight, WT versus HDAC6 KO: DIO mice; for body weight, WT versus HDAC6 KO: 3 weeks, ACY775 10, ACY738 50, Tubastatin A 25 mg/kg/day i.p.

`O=C(NO)c1cnc(NC2(c3ccccc3)CC2)nc1` [ACY738] was tested, and the “food intake after a single dose” value (DIO mice [1]) was “significantly reduced/blocked the food intake”, the “insulin tolerance test (ITT)” value (DIO mice [2]; DIO mice) was “improved insulin tolerance” and the “hepatic steatosis (H&E liver)” value (DIO mice [2]; DIO mice) was “improved hepatic steatosis”. For the same compound, the “food intake” value (DIO mice [2]; DIO mice) was “severely reduced”, the “glucose tolerance test (GTT)” value (DIO mice [2]; DIO mice) was “significant improvement of glucose homeostasis” and the HOMA-IR insulin resistance (DIO mice [2]; DIO mice) was “ameliorated insulin resistance”. The serum insulin levels (DIO mice [2]; DIO mice) was “reduced insulin levels”, the serum leptin levels (DIO mice [2]; DIO mice) was “significantly decreased” and the “food intake and total body fat mass (summary)” value (DIO mice [2]) was “significant reduction of food intake and total body fat mass”. The energy expenditure (DIO mice [3]) was “higher energy expenditure in light cycle, though without significant difference in dark cycle”, the “time and frequency in the food zone” value (DIO mice [4]) was “spent significantly shorter time and displayed lower frequency of appearance” and the “time and frequency in the food-containing white side chambers” value (DIO mice [4]) was “spent similar time and frequency of appearance”. The “cumulative duration in the dark side chambers” value (DIO mice [4]) was “no significant differences in cumulative duration”, the food intake (db/db mice) was “not affected” and the ITT blood glucose (db/db mice) was “no significant difference in blood glucose levels”. The fasting blood glucose (db/db mice) was “not affected”, the “body weight in HDAC6 KO mice” value (HDAC6-KO DIO mice; DIO HDAC6 KO mice) was “slight decrease” and the “blood glucose, serum insulin and leptin levels, WT versus HDAC6 KO” value (HDAC6-KO DIO mice) was “all significantly higher in the ACY738-treated HDAC6 KO group”. For the same compound, the “fat mass and fat %, WT versus HDAC6 KO” value (HDAC6-KO DIO mice) was “significantly lower in the wt group compared to the HDAC6 KO group”, the “food intake, WT versus HDAC6 KO” value (HDAC6-KO DIO mice) was “significantly higher in the HDAC6 KO group” and the “glucose tolerance and insulin sensitivity (GTT, ITT), WT versus HDAC6 KO” value (HDAC6-KO DIO mice) was “did not improve glucose tolerance and increase insulin sensitivity in the HDAC6 KO mice”. The “lean mass, WT versus HDAC6 KO” value (HDAC6-KO DIO mice) was “not different” and the “body weight, WT versus HDAC6 KO” value (HDAC6-KO DIO mice) was “major difference”.
For `O=C(NO)c1cnc(NC2(c3cccc(F)c3)CCCCC2)nc1` [ACY775, 2-[[1-(3-fluorophenyl)cyclohexyl]amino]-N-hydroxy-5-pyrimidinecarboxamide], the “food intake after a single dose” value (DIO mice [1]) was “significantly reduced/blocked the food intake”, the “hepatic steatosis (H&E liver)” value (DIO mice [2]; DIO mice) was “almost completely abolished hepatic steatosis” and the “food intake” value (DIO mice [2]; DIO mice) was “highly significant reduction”. For the same compound, the “glucose tolerance test (GTT)” value (DIO mice [2]; DIO mice) was “significantly improved glucose tolerance”, the HOMA-IR insulin resistance (DIO mice [2]; DIO mice) was “significantly reduced the insulin resistance” and the serum insulin levels (DIO mice [2]; DIO mice) was “significantly reduced the circulating insulin levels”. The serum leptin levels (DIO mice [2]; DIO mice) was “significantly downregulated”, the “daily food intake on treatment” value (DIO mice [2]; DIO mice, ACY775 10 mg/kg, ACY738 50 mg/kg i.p.) was 0.85 ± 0.06 g and the “food intake and total body fat mass (summary)” value (DIO mice [2]) was “significant reduction of food intake and total body fat mass”. The energy expenditure (DIO mice [3]) was “higher in the both dark and light cycle”, the physical activity level (DIO mice [3]; dark and light cycles) was “not different” and the “time and frequency in the food zone” value (DIO mice [4]) was “spent significantly shorter time and displayed lower frequency of appearance”. The “time and frequency in the food-containing white side chambers” value (DIO mice [4]) was “spent significantly shorter time and had lower frequency of appearance”, the “cumulative duration in the dark side chambers” value (DIO mice [4]) was “no significant differences in cumulative duration” and the food intake (db/db mice) was “transitionally reduced”. For the same compound, the ITT blood glucose (db/db mice) was “no significant difference in blood glucose levels”, the “blood glucose lowering at end of treatment” value (db/db mice; 3 weeks) was “completely diminished” and the fasting blood glucose (db/db mice) was “lower in ACY775-treated mice than vehicle-treated mice”. The “blood glucose, serum insulin and leptin levels, WT versus HDAC6 KO” value (HDAC6-KO DIO mice) was “all significantly higher in the ACY775-treated HDAC6 KO group”, the “fat mass and fat %, WT versus HDAC6 KO” value (HDAC6-KO DIO mice) was “significantly lower in the wt group compared to the HDAC6 KO group” and the “food intake, WT versus HDAC6 KO” value (HDAC6-KO DIO mice) was “blocked in the HDAC6 KO mice”. For the same compound, the “glucose tolerance and insulin sensitivity (GTT, ITT), WT versus HDAC6 KO” value (HDAC6-KO DIO mice) was “could not increase glucose tolerance and insulin sensitivity in the HDAC6 KO mice”, the “lean mass, WT versus HDAC6 KO” value (HDAC6-KO DIO mice) was “not different” and the “body weight, WT versus HDAC6 KO” value (HDAC6-KO DIO mice) was “highly significant decrease in the bodyweight of the WT DIO mice when compared to HDAC6 KO DIO mice”.
